Legend:
[1] = test system: BPH induced animal model (sulpiride); experiment: Organ weights in sulpiride BPH induced animal model; format: in vivo, Sprague-Dawley male rats; details: rat
5α-reductase = experiment: Expression of 5α-reductase in ventral prostate by RT-PCR, BPH induced animal model; format: in vivo, Sprague-Dawley male rats; details: sulpiride 40 mg/kg alone, 60 days, rat
From the text: As androgen, the most commonly used hormone in the body is testosterone. But the most powerful hormone of androgens related to development of prostate is 5α-dihydrotestosterone (DHT) which is made by combining testosterone and 5α-reductase. […] It is reported that DHT made by hyperprolactinemia make more gaining weight in lateral lobe than dorsal lobe or ventral lobe of prostate. Based on this fact, the experiment using PEP1 according to example 1 only or co-administration with other test material to BPH induced animal model was done as follows. […] Also before administrating the test materials, the body weights of every animal were measured and recorded.
Sulpiride as test material was purchased from Sigma Chemical Co. (St. Louis, Mo., USA) and used for the experiment. […] The dosage of the administration was calculated based on the concentration of 0.5 ml/kg with reflecting the body weight measured every day. […]
After administrating sulpiride with test materials for 60 days and collecting ventral prostate, the effect to the expression of 5α-reductase was measured by using RT-PCR. […] After then RNA was quantified by using spectrophotometer. […] For the control of quantification in electrophoresis, GAPDH whose expression level is not changed by other drugs was used. […]

[2] = Sulpiride 40 mg/kg 60 days + Finasteride 5 mg/kg
[3] = Sulpiride 40 mg/kg 60 days alone (BPH induction)

Row | SMILES | Prostate index [1, 2] | Weight of prostate [1, 2] | Weight of seminal vesicle [1, 2] | Weight of prostate [1, 3] | Weight of seminal vesicle [1, 3] | Prostate index ([1]; Sulpiride 40 mg/kg 60 days alone (BPH induction), equation Final prostate weight/body weight) | Level of 5α-reductase expression in ventral prostate (RT-PCR) (5α-reductase)
1 | CC(C)(C)NC(=O)[C@H]1CC[C@H]2[C@@H]3CC[C@H]4NC(=O)C=C[C@]4(C)[C@H]3CC[C@]12C [Finasteride, finasteride] | 0.157 | 0.75 ± 0.06 g | 0.49 ± 0.02 g | – | – | – | –
2 | CCN1CCCC1CNC(=O)c1cc(S(N)(=O)=O)ccc1OC (stereo not shown) [Sulpiride, sulpiride] | – | – | – | 1.59 ± 0.05 g | 1.23 ± 0.11 g | 0.303 | increased
